# Tests used:
# [1] = test system: rat 6-OHDA model of PD; test: Neurorestoration study in 6-OHDA model of PD in rats; type: in vivo
# [2] = test system: E14 dopamine neurons; test: Internalization experiment on dopaminergic neurons; type: cell-based, Mouse; details: 30,000 cpm of iodinated protein, 37° C., 2 hr, acid wash
# Description: Mouse E13.5 dopamine neurons grown on the 24 well plate in culture were incubated with 30,000 cpm of iodinated CDNF or C-CDNF per well at 37° C. 2 hr. The cells were transferred to ice and washed once with 0.5 ml of the ice cold media. Then cells were transferred to Eppendorf tubes and washed at 4° C. once with 0.2M acetic acid, 0.5M NaCl, pH 2.8. After centrifugation at 1000 g for 10 min cells were dissolved in 0.5 ml of 0.5 N NaOH and counted on the gamma counter.
# [3] = test system: dopamine neurons; test: Survival of TH-positive dopamine neurons in dissociated midbrain floor cultures; type: cell-based, mouse; details: for Fold change of survived neurons compared to neurons grown without growth factors: data of Table 3 divided by values of no factor
# Method in brief: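 Dissociated E13.5 NMRI mouse midbrain floor neurons grown five days in DMEM/F12 with N2, with polypeptides at a range of concentrations, GDNF (100 ng/ml), or nothing. TH-immunopositive neurons were counted by imaging. Values are a percentage of GDNF-maintained TH-positive neurons, as mean ± SEM from at least three independent cultures.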
# [4] = test system: ER stressed SCG neurons; test: Survival of tunicamycin-treated (ER stressed) SCG sympathetic neurons after microinjection; type: cell-based, mice; details: for survived neurons as % compared to neurons grown in the presence of NGF: microinjected into cytoplasm, CDNF (400); for Fold change of survived neurons compared to neurons injected with PBS: data of Table 1 divided by values of PBS
# Method in brief: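 Newborn mouse SCG neurons grown 5-6 days with 30 ng/ml NGF, then microinjected with CDNF (FL or C-terminal) plasmids (10 ng/ul, EGFP reporter) or proteins (200 ng/ul, Dextran Texas Red). Tunicamycin (2 μM) added next day. Fluorescent survivors counted blindly after 3 days as % of initial; compared with vector or PBS (ANOVA/Dunnett).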
# [5] = Table 3A (FIG. 15), AVG, 1 ng/ml, 5 days
# [6] = Table 3A (FIG. 15), AVG, 10 ng/ml, 5 days
# [7] = Table 3A (FIG. 15), AVG, 100 ng/ml, 5 days
# [8] = Table 3A (FIG. 15), AVG, 1000 ng/ml, 5 days
# [9] = Table 3A (FIG. 15), exp1, 1 ng/ml, 5 days
# [10] = Table 3A (FIG. 15), exp1, 10 ng/ml, 5 days
# [11] = Table 3A (FIG. 15), exp1, 100 ng/ml, 5 days
# [12] = Table 3A (FIG. 15), exp1, 1000 ng/ml, 5 days
# [13] = Table 3A (FIG. 15), exp2, 1 ng/ml, 5 days
# [14] = Table 3A (FIG. 15), exp2, 10 ng/ml, 5 days
# [15] = Table 3A (FIG. 15), exp2, 100 ng/ml, 5 days
# [16] = Table 3A (FIG. 15), exp2, 1000 ng/ml, 5 days
# [17] = Table 3A (FIG. 15), exp3, 1 ng/ml, 5 days
# [18] = Table 3A (FIG. 15), exp3, 10 ng/ml, 5 days
# [19] = Table 3A (FIG. 15), exp3, 100 ng/ml, 5 days
# [20] = Table 3A (FIG. 15), exp3, 1000 ng/ml, 5 days
# [21] = Table 1A (FIG. 14), AVG of exp1-2, tunicamycin 2 μM
# [22] = Table 1A (FIG. 14), exp1, tunicamycin 2 μM, counted after 3 days
# [23] = Table 1A (FIG. 14), exp2, tunicamycin 2 μM, counted after 3 days
substance,measurement,setting,value
"CKGC [MANF4, reference compound]",efficacy on amphetamine-induced rotations,"[1]; infused into the striatum starting 2 weeks after 6-OHDA lesioning, rotations up to 12 weeks post lesioning",not effective
^125I-CDNF: CDNF iodinated with 125I-Na using the lactoperoxidase method,internalization into dopamine neurons (radioactivity inside the cells),[2],but not ^125I-CDNF is efficiently internalized
TLDLASVDLRKMRVAELKQILHSWGEECRACAE (listed as Homo sapiens) [pep15],protection against 6-OHDA-induced impairment in motor imbalance (amphetamine-induced rotational behavior),"[1]; subcutaneous injections 50 μg twice a week for 4 weeks starting two weeks post-lesion, p<0.001 vs vehicle",effective
same,survived neurons as % compared to neurons grown in the presence of GDNF,"[3]; Table 3B (FIG. 17), AVG, 1 ng/ml, 5 days",73.72 % GDNF
same,survived neurons as % compared to neurons grown in the presence of GDNF,"[3]; Table 3B (FIG. 17), AVG, 10 ng/ml, 5 days",87.03 % GDNF
same,survived neurons as % compared to neurons grown in the presence of GDNF,"[3]; Table 3B (FIG. 17), AVG, 100 ng/ml, 5 days",93.53 % GDNF
same,survived neurons as % compared to neurons grown in the presence of GDNF,"[3]; Table 3B (FIG. 17), AVG, 1000 ng/ml, 5 days",86.15 % GDNF
same,protection of dopaminergic neurons in culture (result in words),"[3]; added to the culture medium, 5 days, TH-positive neurons counted",best protective effect
same,survived neurons as % compared to neurons grown in the presence of NGF,"[4]; Table 1B (FIG. 16), exp1, tunicamycin 2 μM, counted after 3 days",70.17 % NGF
same,survived neurons as % compared to neurons grown in the presence of NGF,"[4]; Table 1B (FIG. 16), exp2, tunicamycin 2 μM, counted after 3 days",61.81 % NGF
same,survived neurons as % compared to neurons grown in the presence of NGF,"[4]; Table 1B (FIG. 16), exp3, tunicamycin 2 μM, counted after 3 days",71.42 % NGF
same,rescue of ER stressed SCG neurons (result in words),"[4]; protein or peptide microinjected into the cytoplasm, tunicamycin 2 μM, living fluorescent neurons counted after 3 days",rescue
KYEKTLDLASVDLRKMRVAELKQILHSWGEECRACAEKTDYVNLIQELAPKYA (listed as Homo sapiens) [pep3],survived neurons as % compared to neurons grown in the presence of GDNF,[3]; [5],66.40 % GDNF
same,survived neurons as % compared to neurons grown in the presence of GDNF,[3]; [6],73.60 % GDNF
same,survived neurons as % compared to neurons grown in the presence of GDNF,[3]; [7],74.14 % GDNF
same,survived neurons as % compared to neurons grown in the presence of GDNF,[3]; [8],81.99 % GDNF
same,survived neurons as % compared to neurons grown in the presence of GDNF,[3]; [9],73.87 % GDNF
same,survived neurons as % compared to neurons grown in the presence of GDNF,[3]; [10],74.30 % GDNF
same,survived neurons as % compared to neurons grown in the presence of GDNF,[3]; [11],85.15 % GDNF
same,survived neurons as % compared to neurons grown in the presence of GDNF,[3]; [12],84.53 % GDNF
same,survived neurons as % compared to neurons grown in the presence of GDNF,[3]; [13],62.76 % GDNF
same,survived neurons as % compared to neurons grown in the presence of GDNF,[3]; [14],64.35 % GDNF
same,survived neurons as % compared to neurons grown in the presence of GDNF,[3]; [15],58.79 % GDNF
same,survived neurons as % compared to neurons grown in the presence of GDNF,[3]; [16],80.59 % GDNF
same,survived neurons as % compared to neurons grown in the presence of GDNF,[3]; [17],62.58 % GDNF
same,survived neurons as % compared to neurons grown in the presence of GDNF,[3]; [18],82.16 % GDNF
same,survived neurons as % compared to neurons grown in the presence of GDNF,[3]; [19],78.46 % GDNF
same,survived neurons as % compared to neurons grown in the presence of GDNF,[3]; [20],80.86 % GDNF
same,Fold change of survived neurons compared to neurons grown without growth factors,"[3]; Table 4, AVG, 1 ng/ml",1.08 fold
same,Fold change of survived neurons compared to neurons grown without growth factors,"[3]; Table 4, AVG, 10 ng/ml",1.20 fold
same,Fold change of survived neurons compared to neurons grown without growth factors,"[3]; Table 4, AVG, 100 ng/ml",1.21 fold
same,Fold change of survived neurons compared to neurons grown without growth factors,"[3]; Table 4, AVG, 1000 ng/ml",1.34 fold
same,Fold change of survived neurons compared to neurons grown without growth factors,"[3]; Table 4, exp1, 1 ng/ml",1.29 fold
same,Fold change of survived neurons compared to neurons grown without growth factors,"[3]; Table 4, exp1, 10 ng/ml",1.30 fold
same,Fold change of survived neurons compared to neurons grown without growth factors,"[3]; Table 4, exp1, 100 ng/ml",1.49 fold
same,Fold change of survived neurons compared to neurons grown without growth factors,"[3]; Table 4, exp1, 1000 ng/ml",1.48 fold
same,Fold change of survived neurons compared to neurons grown without growth factors,"[3]; Table 4, exp2, 1 ng/ml",1.00 fold
same,Fold change of survived neurons compared to neurons grown without growth factors,"[3]; Table 4, exp2, 10 ng/ml",1.02 fold
same,Fold change of survived neurons compared to neurons grown without growth factors,"[3]; Table 4, exp2, 100 ng/ml",0.93 fold
same,Fold change of survived neurons compared to neurons grown without growth factors,"[3]; Table 4, exp2, 1000 ng/ml",1.28 fold
same,Fold change of survived neurons compared to neurons grown without growth factors,"[3]; Table 4, exp3, 1 ng/ml",0.97 fold
same,Fold change of survived neurons compared to neurons grown without growth factors,"[3]; Table 4, exp3, 10 ng/ml",1.27 fold
same,Fold change of survived neurons compared to neurons grown without growth factors,"[3]; Table 4, exp3, 100 ng/ml",1.21 fold
same,Fold change of survived neurons compared to neurons grown without growth factors,"[3]; Table 4, exp3, 1000 ng/ml",1.25 fold
same,survived neurons as % compared to neurons grown in the presence of NGF,[4]; [21],85.46 % NGF
same,survived neurons as % compared to neurons grown in the presence of NGF,[4]; [22],83.08 % NGF
same,survived neurons as % compared to neurons grown in the presence of NGF,[4]; [23],87.84 % NGF
same,Fold change of survived neurons compared to neurons injected with PBS,"[4]; Table 2, AVG",2.32 Fold to PBS
same,Fold change of survived neurons compared to neurons injected with PBS,"[4]; Table 2, exp1",2.42 Fold to PBS
same,Fold change of survived neurons compared to neurons injected with PBS,"[4]; Table 2, exp2",2.21 Fold to PBS
TLDLASVDLRKMRVAELKQILHSWGEECRACAEKTDYVNLIQELAPKYAATHPKTEL (listed as Homo sapiens) [pep2],survived neurons as % compared to neurons grown in the presence of GDNF,[3]; [5],67.69 % GDNF
same,survived neurons as % compared to neurons grown in the presence of GDNF,[3]; [6],69.82 % GDNF
same,survived neurons as % compared to neurons grown in the presence of GDNF,[3]; [7],68.98 % GDNF
same,survived neurons as % compared to neurons grown in the presence of GDNF,[3]; [8],66.30 % GDNF
same,survived neurons as % compared to neurons grown in the presence of GDNF,[3]; [9],81.18 % GDNF
same,survived neurons as % compared to neurons grown in the presence of GDNF,[3]; [10],74.74 % GDNF
same,survived neurons as % compared to neurons grown in the presence of GDNF,[3]; [11],81.00 % GDNF
same,survived neurons as % compared to neurons grown in the presence of GDNF,[3]; [12],83.01 % GDNF
same,survived neurons as % compared to neurons grown in the presence of GDNF,[3]; [13],52.61 % GDNF
same,survived neurons as % compared to neurons grown in the presence of GDNF,[3]; [14],58.93 % GDNF
same,survived neurons as % compared to neurons grown in the presence of GDNF,[3]; [15],47.98 % GDNF
same,survived neurons as % compared to neurons grown in the presence of GDNF,[3]; [16],52.95 % GDNF
same,survived neurons as % compared to neurons grown in the presence of GDNF,[3]; [17],69.28 % GDNF
same,survived neurons as % compared to neurons grown in the presence of GDNF,[3]; [18],75.80 % GDNF
same,survived neurons as % compared to neurons grown in the presence of GDNF,[3]; [19],77.95 % GDNF
same,survived neurons as % compared to neurons grown in the presence of GDNF,[3]; [20],62.94 % GDNF
same,Fold change of survived neurons compared to neurons grown without growth factors,"[3]; Table 4, AVG, 1 ng/ml",1.11 fold
same,Fold change of survived neurons compared to neurons grown without growth factors,"[3]; Table 4, AVG, 10 ng/ml",1.14 fold
same,Fold change of survived neurons compared to neurons grown without growth factors,"[3]; Table 4, AVG, 100 ng/ml",1.13 fold
same,Fold change of survived neurons compared to neurons grown without growth factors,"[3]; Table 4, AVG, 1000 ng/ml",1.09 fold
same,Fold change of survived neurons compared to neurons grown without growth factors,"[3]; Table 4, exp1, 1 ng/ml",1.42 fold
same,Fold change of survived neurons compared to neurons grown without growth factors,"[3]; Table 4, exp1, 10 ng/ml",1.31 fold
same,Fold change of survived neurons compared to neurons grown without growth factors,"[3]; Table 4, exp1, 100 ng/ml",1.42 fold
same,Fold change of survived neurons compared to neurons grown without growth factors,"[3]; Table 4, exp1, 1000 ng/ml",1.45 fold
same,Fold change of survived neurons compared to neurons grown without growth factors,"[3]; Table 4, exp2, 1 ng/ml",0.83 fold
same,Fold change of survived neurons compared to neurons grown without growth factors,"[3]; Table 4, exp2, 10 ng/ml",0.93 fold
same,Fold change of survived neurons compared to neurons grown without growth factors,"[3]; Table 4, exp2, 100 ng/ml",0.76 fold
same,Fold change of survived neurons compared to neurons grown without growth factors,"[3]; Table 4, exp2, 1000 ng/ml",0.84 fold
same,Fold change of survived neurons compared to neurons grown without growth factors,"[3]; Table 4, exp3, 1 ng/ml",1.07 fold
same,Fold change of survived neurons compared to neurons grown without growth factors,"[3]; Table 4, exp3, 10 ng/ml",1.17 fold
same,Fold change of survived neurons compared to neurons grown without growth factors,"[3]; Table 4, exp3, 100 ng/ml",1.20 fold
same,Fold change of survived neurons compared to neurons grown without growth factors,"[3]; Table 4, exp3, 1000 ng/ml",0.97 fold
same,survived neurons as % compared to neurons grown in the presence of NGF,[4]; [21],77.52 % NGF
same,survived neurons as % compared to neurons grown in the presence of NGF,[4]; [22],79.71 % NGF
same,survived neurons as % compared to neurons grown in the presence of NGF,[4]; [23],75.32 % NGF
same,Fold change of survived neurons compared to neurons injected with PBS,"[4]; Table 2, AVG",2.11 Fold to PBS
same,Fold change of survived neurons compared to neurons injected with PBS,"[4]; Table 2, exp1",2.32 Fold to PBS
same,Fold change of survived neurons compared to neurons injected with PBS,"[4]; Table 2, exp2",1.90 Fold to PBS
